How the values were obtained:
[1] = Suppression of Phenylbenzoquinone Irritant-Induced Writhing (PBQ); format: in vivo, Carworth Farms CF-1 mice; settings: subcutaneously, mouse; for Analgesic Activity % Protection, PBQ: at 56 mg./kg.; for ED50: sc, PBQ-induced writhing, read-out: Analgesic Activity ED50, PBQ
Experimental: Suppression of Phenylbenzoquinone Irritant-Induced Writhing
Groups of 5 Carworth Farms CF-1 mice are pretreated subcutaneously or orally with saline, morphine, codeine or the test compound. Twenty minutes (if treated subcutaneously) or fifty minutes (if treated orally) later, each group is treated with intraperitoneal injection of phenylbenzoquinone, an irritant known to produce abdominal contractions. The mice are observed for 5 minutes for the presence or absence of writhing starting 5 minutes after the injection of the irritant. MPE50 's of the drug pretreatments in blocking writhing are ascertained.
(§1) Results of the above tests are recorded as percent maximum possible effect (%MPE). The %MPE of each group is statistically compared to the %MPE of the standard and the predrug control values. The %MPE is calculated as follows: [formula]
(§2) The following abbreviations are used in the Tables: PBQ=phenylbenzoquinone-induced writhing; TF=tail flick; HP=hot plate; RTC=rat tail clamp; and FJ=flinch jump.
(§3) Single values in the tables are ED50 's. A number followed by a second number in parentheses reports the % protection observed at a given dose. Thus, 31(56) indicates 31% protection at a dose of 56 mg./kg. of body weight.

[2] = Mouse Tail Flick Analgesic Testing (TF); format: in vivo, mice; settings: for ED50: sc; for ED50 / Analgesic Activity % Protection, TF: subcutaneously, mouse tail flick; for Analgesic Activity % Protection, TF: at 10 mg./kg.
Text: (b) Mouse Tail Flick Analgesic Testing
Tail flick testing in mice is modified after D'Amour and Smith, J. Pharmacol. Exp. Ther., 72, 74-79 (1941) using controlled high intensity heat applied to the tail. Each mouse is placed in a snug-fitting metal cylinder, with the tail protruding through one end. This cylinder is arranged so that the tail lies flat over a concealed heat lamp. At the onset of testing an aluminum flag over the lamp is drawn back, allowing the light beam to pass through the slit and focus onto the end of the tail. A timer is simultaneously activated. The latency of a sudden flick of the tail is ascertained. Untreated mice usually react within 3-4 seconds after exposure to the lamp. The end point for protection is 10 seconds. Each mouse is tested at 0.5 and 2 hours after treatment with morphine and the test compound. Morphine has an MPE50 of 3.2-5.6 mg./kg. (s.c.).
as §1, §2, §3

[3] = "Flinch-Jump" Test (FJ); format: in vivo, male albino rats, Charles River (Sprague-Dawley) CD strain; settings: sc; subcutaneously; rat flinch jump; read-out: Analgesic Activity ED50, FJ
Text: A modification of the flinch-jump procedure of Tenen, Psychopharmacologia, 12, 278-285 (1968) is used for determining pain thresholds. Male albino rats (175-200 g.) of the Charles River (Sprague-Dawley) CD strain are used. Prior to receiving the drug, the feet of each rat are dipped into a 20% glycerol/saline solution. The animals are then placed in a chamber and presented with a series of 1-second shocks to the feet which are delivered in increasing intensity at 30-second intervals. These intensities are 0.26, 0.39, 0.52, 0.78, 1.05, 1.31, 1.58, 1.86, 2.13, 2.42, 2.72 and 3.04 mA. Each animal's behavior is rated for the presence of (a) flinch, (b) squeak and (c) jump or rapid forward movement at shock onset. Single upward series of shock intensities are presented to each rat just prior to, and at 0.5, 2, 4 and 24 hours subsequent to drug treatment.
as §1, §2, §3

[4] = Haffner Tail Pinch Procedure (rat tail clamp, RTC); format: in vivo, male albino rats, Charles River (Sprague-Dawley) CD strain; settings: for ED50: sc, subcutaneously, rat tail clamp, read-out: Analgesic Activity ED50, RTC
Experimental: Effect on the Haffner Tail Pinch Procedure
A modification of the procedure of Haffner, Experimentelle Prufung Schmerzstillender. Deutch Med. Wschr., 55, 731-732 (1929) is used to ascertain the effects of the test compound on aggressive attacking responses elicited by a stimulus pinching the tail. Male albino rats (50-60 g.) of the Charles River (Sprague-Dawley) CD strain are used. Prior to drug treatment, and again at 0.5, 1, 2 and 3 hours after treatment, a Johns Hopkins 2.5-inch "bulldog" clamp is clamped onto the root of the rat's tail. The endpoint at each trial is clear attacking and biting behavior directed toward the offending stimulus, with the latency for attack recorded in seconds. The clamp is removed in 30 seconds if attacking has not yet occurred, and the latency of response is recorded as 30 seconds. Morphine is active at 17.8 mg./kg. (i.p.).
as §1, §2, §3

[5] = Mouse Hot Plate Analgesic Testing (HP); format: in vivo, mice; set-up: key to Analgesic Activity, HP (IA@10): IA: inactive
Experimental: (a) Mouse Hot Plate Analgesic Testing
The method used is modified after Woolfe and MacDonald, J. Pharmacol. Exp. Ther., 80, 300-307 (1944). A controlled heat stimulus is applied to the feet of mice on a 1/8-inch thick aluminum plate. A 250 watt reflector infrared heat lamp is placed under the bottom of the aluminum plate. A thermal regulator, connected to thermistors on the plate surface, programs the heat lamp to maintain a constant temperature of 57° C. Each mouse is dropped into a glass cylinder (61/2-inch diameter) resting on the hot plate, and timing is begun when the animal's feet touch the plate. The mouse is observed at 0.5 and 2 hours after treatment with the test compound for the first "flicking" movements of one or both hind feet, or until 10 seconds elapse without such movements. Morphine has an MPE50 =4-5.6 mg./kg. (s.c.).
as §1, §2, §3

[6] = subcutaneously, at 10 mg./kg., mouse hot plate

SMILES | Analgesic Activity % Protection, PBQ [1] | ED50 [1] | further results
CC(CCCc1ccccc1)Oc1ccc([C@H]2CCC[C@H](O)C2)c(O)c1 (stereo partly drawn) | 28% | – | –
CCCCCCC(C)(C)c1ccc([C@H]2CC[C@H](O)C2)c(O)c1 (relative stereo) | 36% | – | –
Oc1cc(OCCCCc2ccccc2)ccc1[C@H]1CCC[C@H](O)C1 (relative stereo) | – | ≥ 56 mg/kg | –
CCCCCCC(C)(C)c1ccc([C@]2(C)CCC[C@H](O)C2)c(O)c1 (relative stereo) [Z-3-[4-(1,1-dimethylheptyl)-2-hydroxyphenyl]-3-methylcyclohexanol] | – | ≥ 56 mg/kg | –
CCCCCCC(C)(C)c1ccc([C@H]2C[C@@H](O)CC[C@@H]2C)c(O)c1 (relative stereo) [cis,trans-3-[4-(1,1-dimethylheptyl)-2-hydroxyphenyl]-4-methylcyclohexanol] | – | ≤ 1 mg/kg | –
Oc1cc(OCCCCc2ccccc2)ccc1[C@@H]1CCC[C@H](O)C1 (relative stereo) [cis-3-[2-Hydroxy-4-(4-phenylbutyloxy)phenyl]cyclohexanol] | – | ≤ 56 mg/kg | –
CCCCCCC(C)(C)c1ccc([C@@H]2CC(=O)CC[C@@H]2C)c(O)c1 (relative stereo) [cis-3-[4-(1,1-Dimethylheptyl)-2-hydroxyphenyl]-4-methylcyclohexanone] | – | 1.51 mg/kg | –
CCCCCCC(C)(C)c1ccc([C@@H]2CC[C@H](O)C2)c(O)c1 (relative stereo) [cis-3-[4-(1,1-Dimethylheptyl)-2-hydroxyphenyl]cyclopentanol] | 57% | – | –
CCCCCCC(C)(C)c1ccc([C@@H]2CCC[C@H](O)C2)c(O)c1 (relative stereo) [cis-3-[4-(1,1-dimethylheptyl) 2-hydroxyphenyl]cyclohexanol] | – | 1.1 mg/kg | ED50 [2]: 6.8 mg/kg; ED50 [3]: 4 mg/kg; ED50 [4]: 4.7 mg/kg
CCCCCCC(C)(C)c1ccc([C@@H]2CCCC[C@H](O)C2)c(O)c1 (relative stereo) [cis-3-[4-(1,1-dimethylheptyl)-2-hydroxyphenyl]cycloheptanol] | – | 1.5 mg/kg | Analgesic Activity % Protection, HP [5, 6]: 27%; Analgesic Activity % Protection, TF [2]: 32%; ED50 [3]: 3.5 mg/kg; ED50 [4]: 7.7 mg/kg
CCCCCCC(C)(C)c1ccc([C@@H]2C[C@@H](O)CC[C@H]2C)c(O)c1 (relative stereo) [trans,trans-3-[4-(1,1-dimethylheptyl)-2-hydroxyphenyl]-4-methylcyclohexanol] | – | 0.5 mg/kg | –
CCCCCCC(C)(C)c1ccc([C@H]2CCC[C@H](O)C2)c(O)c1 (relative stereo) [trans-3-[4-(1,1-Dimethylheptyl)-2-hydroxyphenyl]cyclohexanol] | – | 3.8 mg/kg | –
CCCCCCC(C)(C)c1ccc([C@H]2CCCC[C@H](O)C2)c(O)c1 (relative stereo) [trans-3-[4-(1,1-dimethylheptyl)-2-hydroxyphenyl]cycloheptanol] | – | 1.53 mg/kg | Analgesic Activity, HP (IA@10) [5, 6]: IA; Analgesic Activity % Protection, TF [2]: 65%; ED50 [3]: 5.4 mg/kg; ED50 [4]: 5.6 mg/kg
CCCCCCC(C)(C)c1ccc(C2CCCC(=O)C2)c(OCc2ccccc2)c1 (stereo not drawn) [3-[2-Benzyloxy-4-(1,1-dimethylheptyl)phenyl]cyclohexanone] | 20% | – | –
CC(CCCc1ccccc1)Oc1ccc(C2CCCC(=O)C2)c(O)c1 (stereo not drawn) [3-[2-hydroxy-4-(2-(5-phenylpentyloxy))phenyl]cyclohexanone] | – | ≥ 56 mg/kg | –
CCCCCCC(C)(C)c1ccc(C2(C)CCCC(=O)C2)c(O)c1 (stereo not drawn) [3-[4-(1,1-Dimethylheptyl)-2-hydroxyphenyl]-3-methylcyclohexanone] | 31% | – | –
CCCCCCC(C)(C)c1ccc(C2CCCCC(=O)C2)c(O)c1 (stereo not drawn) [3-[4-(1,1-Dimethylheptyl)-2-hydroxyphenyl]cycloheptanone] | – | 2.15 mg/kg | Analgesic Activity % Protection, HP [5, 6]: 33%; Analgesic Activity % Protection, TF [2]: 58%; ED50 [3]: 10.8 mg/kg; ED50 [4]: 4.4 mg/kg
CCCCCCC(C)(C)c1ccc(C2=CC(=O)CCC2)c(O)c1 [3-[4-(1,1-Dimethylheptyl)-2-hydroxyphenyl]cyclohex-2-enone] | 20% | – | –
CCCCCCC(C)(C)c1ccc(C2CCCC(=O)C2)c(O)c1 (stereo not drawn) [3-[4-(1,1-Dimethylheptyl)-2-hydroxyphenyl]cyclohexanone] | – | 4.5 mg/kg | ED50 [2]: 15.3 mg/kg
CCCCCCC(C)(C)c1ccc(C2CCC(=O)C2)c(O)c1 (stereo not drawn) [3-[4-(1,1-Dimethylheptyl)-2-hydroxyphenyl]cyclopentanone] | 15% | – | –
CN1CC[C@]23c4c5ccc(O)c4O[C@H]2[C@@H](O)C=C[C@H]3[C@H]1C5 [Morphine, reference compound] | – | – | MPE50, hot plate ([5]; s.c., mouse): 4 to 5.6 mg/kg; MPE50, tail flick ([2]; s.c., mouse): 3.2 to 5.6 mg/kg; activity in Haffner tail pinch ([4]; 17.8 mg./kg. (i.p.), rat): active
CC(CCCc1ccccc1)Oc1ccc([C@@H]2CCC[C@H](O)C2)c(O)c1 (stereo partly drawn) [cis-3-[2-hydroxy-4-(2-(5-phenylpentyloxy))phenyl]cyclohexanol] | – | 38 mg/kg | –
O=C1CCCC(c2ccc(O)cc2O)C1 (stereo not drawn) [x=1; A+B=oxo; R2=H; R3=H; Z=O; W=H, 3-(2,4-Dihydroxyphenyl)cyclohexanone] | 32% | – | –
COC12CCCC(C1)c1ccc(O)cc1O2 (stereo not drawn) [x=1; A+B=oxo^(c); R2=H; R3=H; Z=O; W=H, 3-(2,4-Dihydroxyphenyl)cyclohexanone Methyl Ketal] | 43% | – | –
